From patent publication US12545718B2 (priority 2019, dated 2026)

Tested on: B/Malaysia/2506/04 virus
Design: species or system BALB/c mice
Settings: mouse, in vivo

Question: CCOC(=O)C1=C[C@@H](OC(CC)CC)[C@H](NC(C)=O)[C@@H](N)C1 [oseltamivir, Oseltamivir phosphate] was tested. Which weight loss did it give?
Answer: does not protect from weight loss
